Experimental findings from PubChem BioAssay (NCI) are described below.

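All cell lines were grown in 96-well plates and treated with compound for 48 hours. GI50: concentration for 50% inhibition of growth. TGI: total growth inhibition.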

Holding throughout (experiment): DTP human tumour cell line panel, 48 h
Test [1] relates to SK-MEL-2 melanoma.
In test [2] the test system is HT29 colon.
For test [3], the system named is MOLT-4 leukemia.
Test [4] concerns A549 NSCLC.
Test [5] relates to DMS 114 small cell lung.
Test [6] has as its system TK-10 renal.
Test [7] relates to NCI-H226 lung.
For test [8], the system named is SF-295 CNS.
Test [9] relates to A498 renal.

The term TGI denotes the concentration at which net growth stops. On to `COC(OC)c1cc2c(cc1C=O)OCO2`, for which the concentration for total growth inhibition (TGI) in test [1], in [2], in test [3], in test [4], in test [5] and in test [6] was greater than 100 µM throughout. This compound also registered a TGI in [7] greater than 100 µM.

A word on the GI50: it is the concentration at which growth is held to half of that of the control. Turning to `O=C1/C=C/[C@@H](O)[C@@H]2C[C@@H](O)C[C@H]2/C=C/CCC[C@H](CCc2cccc3ccccc23)O1`, the GI50 in [8] is 0.0388 µM; in test [1], 0.175 µM; in [2], 0.0347 µM; in test [3], 0.105 µM; in [4], 0.0411 µM; in test [9], 0.0185 µM. The GI50 is 0.0861 µM in [6] and 0.0178 µM in [7]. In addition, the TGI turned out to be 10.1 µM in test [8]; 0.521 µM in test [1]; 0.373 µM in [2]; 2.61 µM in [3]; 13.2 µM in test [4]; 0.815 µM in test [9]. The TGI in [6] stood at 0.328 µM; in test [7] it was 0.0351 µM.

Take `C[C@H]1/C(=C/C(=O)OCCN(C)C)CC[C@H]2[C@H]1C(=O)C[C@H]1C(C)(C)[C@@H](O)CC[C@]21C`: the concentration for total growth inhibition (TGI) in test [8], in [1], in test [2], in test [3], in test [4] and in test [9] was greater than 100 µM each time. For the same compound, the TGI in [6] and in [7] was greater than 100 µM each time.

For `O=C(CCl)NCCNc1nccc(Nc2ccc(S(=O)(=O)Nc3ccccn3)cc2)n1`, the GI50 in test [8] is 2.39 µM; in test [1], 2.33 µM; in test [2], 2.41 µM; in test [3], 1.91 µM; in test [4], 3.4 µM; in test [9] it was 3.67 µM. The GI50 was 3.04 µM in test [6] and 3.34 µM in test [7]. Further, the TGI in test [8] is 7.66 µM; in test [1], 7.83 µM; in test [2] it was 6.52 µM; in [3], 11.9 µM; in test [4], 13 µM; in [9], 13.1 µM. For the same compound, the TGI in [6] was 10.3 µM; in test [7] it was 28.3 µM.

As to `CCCCCCCCCCCCCCCCCc1nccn1CCOCCO`, the GI50 in [8] was 5.27 µg/mL; in test [1], 7.58 µg/mL; in test [2] it was 4.59 µg/mL; in test [3] it was 5.5 µg/mL; in [4], 4.88 µg/mL; in test [9] it was 4.82 µg/mL. Further, the GI50 in test [6] is 5.31 µg/mL; in test [7], 4.36 µg/mL. For the same compound, the TGI was 11 µg/mL in [8]; 14 µg/mL in test [1]; 10.1 µg/mL in [2]; 12.3 µg/mL in test [3]; 10.2 µg/mL in [4]; 11 µg/mL in [9]. Also, the TGI was 10.4 µg/mL in [6] and 10 µg/mL in test [7].

With `O=C1/C(=C/c2ccccc2)CN(C(=O)C(Cl)Cl)C/C1=C\c1ccccc1`, the GI50 in test [8] was 0.597 µM; in test [1], 1.79 µM; in test [2], 0.295 µM; in [3] it was 0.369 µM; in [4] it was 1.7 µM; in [9], 1.48 µM. In addition, the GI50 is 1.79 µM in [6] and 1.22 µM in test [7]. Further, the TGI in [8] stood at 1.86 µM; in test [1], 4.07 µM; in test [2], 1.06 µM; in test [4], 3.92 µM; in test [9], 3 µM; in test [6] it was 3.22 µM. Besides, the TGI in test [7] was 5.17 µM.

Consider `COc1cc2c3cc1Oc1c(OC)c(OC)cc4c1C(=NCC4)Cc1ccc(cc1)Oc1cc(ccc1O)C[C@H]3N(C)CC2`, for which the TGI is 43.3 µM in test [8]; 31.1 µM in test [1]; 23.3 µM in test [2]; 66.2 µM in test [3]; greater than 100 µM in test [4]; 36.7 µM in test [9]. Besides, the total growth inhibition concentration (TGI) in [6] was 43.1 µM; in [7], 61.2 µM.

For the compound `O=C(/C=C/c1ccc(Cl)cc1)c1ccccc(=O)c1O`, the TGI in test [8] is 16.3 µM; in test [1], 11.8 µM; in [2], 10.8 µM; in test [3], 16.2 µM; in test [4], greater than 39.2 µM; in test [9], 36 µM. The results for the TGI in [6] and in [7] were 19.1 µM and 5.45 µM, respectively.

With `CCCCOC(=O)c1ccc(N)cc1`, the GI50 was 19 µM in test [8]; greater than 100 µM in test [1]; greater than 100 µM in test [2]; greater than 100 µM in [3]; 32.3 µM in test [4]; 33.6 µM in test [9]. The GI50 in test [6] was 92 µM; in test [7] it was 63.6 µM. Further, the TGI is 89.1 µM in [8]; greater than 100 µM in test [1]; greater than 100 µM in [2]; greater than 100 µM in [3]; greater than 100 µM in test [4]; greater than 100 µM in [9]. Further, the total growth inhibition concentration (TGI) in test [6] and in test [7] was greater than 100 µM each time.

In the case of `Cc1nc2c(c(N3CCCc4ccccc43)n1)CCC2`, the GI50 in [8] was less than 0.01 µM; in [1], 0.016 µM; in test [2] it was less than 0.01 µM; in test [3], less than 0.01 µM; in test [4] it was less than 0.01 µM; in test [9] it was less than 0.01 µM. In addition, the GI50 in test [6] was 1.62 µM; in [7] it was less than 0.01 µM. Also, the TGI is greater than 100 µM in test [8]; greater than 100 µM in [1]; 0.0131 µM in test [2]; 3.07 µM in test [3]; greater than 100 µM in test [4]; greater than 100 µM in test [6]. Moreover, in test [7], the TGI was 40.5 µM.

Regarding `O=C(O)[C@H](Cc1c[nH]c2ccccc12)N1C(=O)c2ccccc2C1=O`, the TGI in test [8], in test [1], in test [2], in [3], in test [4] and in [9] was greater than 100 µM throughout. Further, the concentration for total growth inhibition (TGI) in test [6] and in test [7] was greater than 100 µM in each case. Further, the figures for the GI50 in test [3] and in test [9] were greater than 100 µM and 87.3 µM, respectively.
